Substitutions are numbered along the chain they refer to. Where a SMILES comes first, the peptide text is derived from it. Bridges are numbered along the chain shown (N, C = ends).
Tests used:
Experiment in all cases: cAMP accumulation
Assay type in all cases: cell-based
Conditions in all cases: mean ± S.E.M.; for Emax: cAMP maximal response, SEM; for EC50: cAMP, CV1-FlpIn cells, 30 min, IBMX
[1] = target: T1, hCTR G369A (Homo sapiens, UniProt P30988, G369A)
T1 construct: c-Myc (N); expressed in transfected cells
T1 sequence (P30988 25-474 G369A): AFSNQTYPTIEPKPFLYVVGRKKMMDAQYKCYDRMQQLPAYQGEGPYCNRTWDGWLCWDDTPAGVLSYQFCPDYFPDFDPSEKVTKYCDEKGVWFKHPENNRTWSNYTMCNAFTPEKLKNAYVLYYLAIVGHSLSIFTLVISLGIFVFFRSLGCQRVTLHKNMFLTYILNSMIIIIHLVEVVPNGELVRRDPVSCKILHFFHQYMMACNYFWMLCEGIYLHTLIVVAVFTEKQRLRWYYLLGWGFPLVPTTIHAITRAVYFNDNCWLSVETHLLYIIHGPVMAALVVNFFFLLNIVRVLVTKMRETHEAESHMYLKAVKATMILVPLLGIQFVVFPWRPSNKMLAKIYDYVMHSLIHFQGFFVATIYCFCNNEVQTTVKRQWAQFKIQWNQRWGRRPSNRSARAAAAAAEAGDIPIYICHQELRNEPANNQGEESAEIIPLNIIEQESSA
Summary of the method: (§1)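 For each mutant, cAMP generated during a 30 min ligand exposure with IBMX is reported as a fraction of the 100 μM forskolin maximum. Cells were ethanol-extracted and dried at room temperature prior to measurement.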

[2] = target: T2, hCTR L368A (Homo sapiens, UniProt P30988, L368A)
T2 construct: c-Myc (N); expressed in transfected cells
T2 sequence (P30988 25-474 L368A): T1 sequence (P30988 25-474 G369A) with L344A, A345G
Summary of the method: as §1

[3] = target: T3, hCTR N286A (Homo sapiens, UniProt P30988, N286A)
T3 construct: c-Myc (N); expressed in transfected cells
T3 sequence (P30988 25-474 N286A): T1 sequence (P30988 25-474 G369A) with N262A, A345G
Summary of the method: as §1

[4] = target: T4, hCTR WT (Homo sapiens, UniProt P30988)
T4 construct: expressed in transfected cells
T4 sequence (P30988 25-474): T1 sequence (P30988 25-474 G369A) with A345G
Summary of the method: as §1

[5] = target: T5, hCTR V375A (Homo sapiens, UniProt P30988, V375A)
T5 construct: c-Myc (N); expressed in transfected cells
T5 sequence (P30988 25-474 V375A): T1 sequence (P30988 25-474 G369A) with A345G, V351A
Summary of the method: as §1

## CC(C)C[C@H](NC(=O)CNC(=O)[C@H](C)NC(=O)[C@H](CC(C)C)NC(=O)[C@H](CCCNC(=N)N)NC(=O)[C@H](Cc1cnc[nH]1)NC(=O)[C@@H](NC(=O)[C@@H](NC(=O)[C@@H]1CSSC[C@H](NC(=O)[C@H](C)N)C(=O)N[C@@H](CC(=O)O)C(=O)N[C@@H]([C@@H](C)O)C(=O)N[C@@H](C)C(=O)N[C@@H]([C@@H](C)O)C(=O)N1)C(C)C)[C@@H](C)O)C(=O)N[C@@H](CC(C)C)C(=O)N[C@@H](CO)C(=O)N[C@@H](CCCNC(=N)N)C(=O)N[C@@H](CO)C(=O)NCC(=O)NCC(=O)N[C@H](C(=O)N[C@H](C(=O)N[C@@H](CCCCN)C(=O)N[C@@H](CC(N)=O)C(=O)N[C@@H](CC(N)=O)C(=O)N[C@@H](Cc1ccccc1)C(=O)N[C@H](C(=O)N1CCC[C@H]1C(=O)N[C@H](C(=O)N[C@@H](CC(N)=O)C(=O)N[C@H](C(=O)NCC(=O)N[C@@H](CO)C(=O)N[C@@H](CCCCN)C(=O)N[C@@H](C)C(=O)N[C@@H](Cc1ccccc1)C(N)=O)C(C)C)[C@@H](C)O)C(C)C)C(C)C)C(C)C [hαCGRP]
[1]
  Emax: 131 ± 20%
  EC50: 24.5 nM
[2]
  Emax: 78 ± 12%
  EC50: 11.5 nM
[3]
  Emax: 46 ± 16%
  EC50: 14.1 nM
[4]
  Emax: 100 ± 7%
  EC50: 11 nM
[5]
  Emax: 114 ± 17%
  EC50: 20.4 nM

## CC[C@H](C)[C@H](NC(=O)[C@H](C)NC(=O)[C@@H](NC(=O)[C@H](CCC(N)=O)NC(=O)[C@@H]1CCCN1C(=O)[C@H](Cc1ccccc1)NC(=O)[C@@H](NC(=O)[C@H](Cc1c[nH]cn1)NC(=O)[C@H](Cc1ccccc1)NC(=O)[C@H](CCCCN)NC(=O)[C@H](CC(N)=O)NC(=O)[C@H](Cc1ccccc1)NC(=O)[C@H](CC(=O)O)NC(=O)[C@H](CCC(N)=O)NC(=O)[C@@H](NC(=O)[C@H](Cc1ccc(O)cc1)NC(=O)[C@@H](NC(=O)CNC(=O)[C@H](CC(C)C)NC(=O)[C@H](CCSC)NC(=O)[C@@H]1CSSC[C@H](N)C(=O)NCC(=O)N[C@@H](CC(N)=O)C(=O)N[C@@H](CC(C)C)C(=O)N[C@@H](CO)C(=O)N[C@@H]([C@@H](C)O)C(=O)N1)[C@@H](C)O)[C@@H](C)O)[C@@H](C)O)[C@@H](C)O)C(=O)NCC(=O)N[C@H](C(=O)NCC(=O)N[C@@H](C)C(=O)N1CCC[C@H]1C(N)=O)C(C)C [hCT]
[1]
  Emax: 129 ± 9%
[2]
  Emax: 70 ± 4%
[3]
  Emax: 126 ± 6%
[4]
  Emax: 100 ± 2%
[5]
  Emax: 122 ± 7%

## CC(C)C[C@H](NC(=O)[C@H](CC(N)=O)NC(=O)[C@H](CC(N)=O)NC(=O)[C@H](CO)NC(=O)[C@H](CO)NC(=O)[C@H](CCCNC(=N)N)NC(=O)[C@@H](NC(=O)[C@H](CC(C)C)NC(=O)[C@H](Cc1ccccc1)NC(=O)[C@H](CC(N)=O)NC(=O)[C@H](C)NC(=O)[C@H](CC(C)C)NC(=O)[C@H](CCCNC(=N)N)NC(=O)[C@H](CCC(N)=O)NC(=O)[C@@H](NC(=O)[C@H](C)NC(=O)[C@@H]1CSSC[C@H](NC(=O)[C@@H](N)CCCCN)C(=O)N[C@@H](CC(N)=O)C(=O)N[C@@H]([C@@H](C)O)C(=O)N[C@@H](C)C(=O)N[C@@H]([C@@H](C)O)C(=O)N1)[C@@H](C)O)C(C)C)C(=O)NCC(=O)N1CCC[C@H]1C(=O)N[C@H](C(=O)N[C@@H](CC(C)C)C(=O)N1CCC[C@H]1C(=O)N1CCC[C@H]1C(=O)N[C@H](C(=O)N[C@@H](CC(N)=O)C(=O)N[C@H](C(=O)NCC(=O)N[C@@H](CO)C(=O)N[C@@H](CC(N)=O)C(=O)N[C@H](C(=O)N[C@@H](Cc1ccc(O)cc1)C(N)=O)[C@@H](C)O)C(C)C)[C@@H](C)O)C(C)C [rAmy]
[1]
  Emax: 78 ± 6%
[2]
  Emax: 95 ± 12%
[3]
  Emax: 97 ± 15%
[4]
  Emax: 100 ± 4%
[5]
  Emax: 92 ± 9%

## CSCC[C@H](NC(=O)CNC(=O)[C@H](CO)NC(=O)[C@H](Cc1ccccc1)NC(=O)[C@H](CCCNC(=N)N)NC(=O)[C@H](Cc1c[nH]cn1)NC(=O)[C@H](Cc1ccccc1)NC(=O)[C@H](CC(N)=O)NC(=O)[C@H](CC(N)=O)NC(=O)[C@H](CC(C)C)NC(=O)[C@H](CC(N)=O)NC(=O)[C@H](CCCNC(=N)N)NC(=O)[C@H](Cc1c[nH]c2ccccc12)NC(=O)[C@H](Cc1ccc(O)cc1)NC(=O)[C@H](C)NC(=O)[C@H](CO)NC(=O)[C@H](CC(C)C)NC(=O)[C@@H](NC(=O)[C@@H]1CSSC[C@H](N)C(=O)N[C@@H](CO)C(=O)N[C@@H](CC(N)=O)C(=O)N[C@@H](CC(C)C)C(=O)N[C@@H](CO)C(=O)N[C@@H]([C@@H](C)O)C(=O)N1)C(C)C)C(=O)NCC(=O)N[C@@H](Cc1ccccc1)C(=O)NCC(=O)N1CCC[C@H]1C(=O)N[C@@H](CCC(=O)O)C(=O)N[C@H](C(=O)N1CCC[C@H]1C(N)=O)[C@@H](C)O [pCT] (H-CSNLSTCVLSAYWRNLNNFHRFSGMGFGPETP-NH2; disulfide 1-7)
[1]
  Emax: 89 ± 7%
  EC50: 0.204 nM
[2]
  Emax: 96 ± 6%
  EC50: 0.0316 nM
[3]
  Emax: 84 ± 6%
  EC50: 0.2 nM
[4]
  Emax: 100 ± 2%
  EC50: 0.0398 nM
[5]
  Emax: 151 ± 8%
  EC50: 0.0316 nM

## CC(C)C[C@H](NC(=O)[C@H](CCCCN)NC(=O)CNC(=O)[C@H](CC(C)C)NC(=O)[C@@H](NC(=O)[C@@H]1CSSC[C@H](N)C(=O)N[C@@H](CO)C(=O)N[C@@H](CC(N)=O)C(=O)N[C@@H](CC(C)C)C(=O)N[C@@H](CO)C(=O)N[C@@H]([C@@H](C)O)C(=O)N1)C(C)C)C(=O)N[C@@H](CO)C(=O)N[C@@H](CCC(N)=O)C(=O)N[C@@H](CCC(=O)O)C(=O)N[C@@H](CC(C)C)C(=O)N[C@@H](Cc1c[nH]cn1)C(=O)N[C@@H](CCCCN)C(=O)N[C@@H](CC(C)C)C(=O)N[C@@H](CCC(N)=O)C(=O)N[C@H](C(=O)N[C@@H](Cc1ccc(O)cc1)C(=O)N1CCC[C@H]1C(=O)N[C@@H](CCCNC(=N)N)C(=O)N[C@H](C(=O)N[C@@H](CC(N)=O)C(=O)N[C@H](C(=O)NCC(=O)N[C@@H](CO)C(=O)NCC(=O)N[C@H](C(=O)N1CCC[C@H]1C(N)=O)[C@@H](C)O)[C@@H](C)O)[C@@H](C)O)[C@@H](C)O [sCT]
[1]
  Emax: 106 ± 8%
[2]
  Emax: 75 ± 7%
[3]
  Emax: 103 ± 6%
[4]
  Emax: 100 ± 1%
[5]
  Emax: 106 ± 5%

Reference: publication PMC5908784, “Extracellular loops 2 and 3 of the calcitonin receptor selectively modify agonist binding and efficacy” (Biochemical Pharmacology, 2018)
